Measured values published in patent US11066369B2, “N-(pyridin-2-yl)pyridine-sulfonamide derivatives and their use in the treatment of disease” (Novartis AG, priority 2016, dated 2021).
Structures can show the parent of a compound that is named as a salt. Where two headings read alike, the source gives them in different places.

Columns and labels:
delF508-CFTR = target: T1, delF508-CFTR (Homo sapiens, UniProt P13569, DEL508-508); assay: Measurement of delF508-CFTR functional activity in primary human bronchial epithelial cells (HBECs) using Multi-Transepithelial Clamp Circuit (MTECC-24) assay; format: cell-based; details: primary CF HBECs; for MTECC24 CFHBEC- Amax %: test compound added 24h before assay plus potentiator, relative to reference combination (2 μM corrector + 0.5 μM potentiator); for EC50: test compound added 24h before assay, in the presence of potentiator, mean of at least two replicates, read-out: MTECC24 CFHBEC- EC50
T1 construct: functional activity of the CFTR channel (Chloride ion transport) in patient derived primary human bronchial epithelial cells; host or cells: patient-derived primary human bronchial epithelial cells (delF508-CFTR)
T1 sequence (P13569 with tags, fused parts or gaps DEL508-508): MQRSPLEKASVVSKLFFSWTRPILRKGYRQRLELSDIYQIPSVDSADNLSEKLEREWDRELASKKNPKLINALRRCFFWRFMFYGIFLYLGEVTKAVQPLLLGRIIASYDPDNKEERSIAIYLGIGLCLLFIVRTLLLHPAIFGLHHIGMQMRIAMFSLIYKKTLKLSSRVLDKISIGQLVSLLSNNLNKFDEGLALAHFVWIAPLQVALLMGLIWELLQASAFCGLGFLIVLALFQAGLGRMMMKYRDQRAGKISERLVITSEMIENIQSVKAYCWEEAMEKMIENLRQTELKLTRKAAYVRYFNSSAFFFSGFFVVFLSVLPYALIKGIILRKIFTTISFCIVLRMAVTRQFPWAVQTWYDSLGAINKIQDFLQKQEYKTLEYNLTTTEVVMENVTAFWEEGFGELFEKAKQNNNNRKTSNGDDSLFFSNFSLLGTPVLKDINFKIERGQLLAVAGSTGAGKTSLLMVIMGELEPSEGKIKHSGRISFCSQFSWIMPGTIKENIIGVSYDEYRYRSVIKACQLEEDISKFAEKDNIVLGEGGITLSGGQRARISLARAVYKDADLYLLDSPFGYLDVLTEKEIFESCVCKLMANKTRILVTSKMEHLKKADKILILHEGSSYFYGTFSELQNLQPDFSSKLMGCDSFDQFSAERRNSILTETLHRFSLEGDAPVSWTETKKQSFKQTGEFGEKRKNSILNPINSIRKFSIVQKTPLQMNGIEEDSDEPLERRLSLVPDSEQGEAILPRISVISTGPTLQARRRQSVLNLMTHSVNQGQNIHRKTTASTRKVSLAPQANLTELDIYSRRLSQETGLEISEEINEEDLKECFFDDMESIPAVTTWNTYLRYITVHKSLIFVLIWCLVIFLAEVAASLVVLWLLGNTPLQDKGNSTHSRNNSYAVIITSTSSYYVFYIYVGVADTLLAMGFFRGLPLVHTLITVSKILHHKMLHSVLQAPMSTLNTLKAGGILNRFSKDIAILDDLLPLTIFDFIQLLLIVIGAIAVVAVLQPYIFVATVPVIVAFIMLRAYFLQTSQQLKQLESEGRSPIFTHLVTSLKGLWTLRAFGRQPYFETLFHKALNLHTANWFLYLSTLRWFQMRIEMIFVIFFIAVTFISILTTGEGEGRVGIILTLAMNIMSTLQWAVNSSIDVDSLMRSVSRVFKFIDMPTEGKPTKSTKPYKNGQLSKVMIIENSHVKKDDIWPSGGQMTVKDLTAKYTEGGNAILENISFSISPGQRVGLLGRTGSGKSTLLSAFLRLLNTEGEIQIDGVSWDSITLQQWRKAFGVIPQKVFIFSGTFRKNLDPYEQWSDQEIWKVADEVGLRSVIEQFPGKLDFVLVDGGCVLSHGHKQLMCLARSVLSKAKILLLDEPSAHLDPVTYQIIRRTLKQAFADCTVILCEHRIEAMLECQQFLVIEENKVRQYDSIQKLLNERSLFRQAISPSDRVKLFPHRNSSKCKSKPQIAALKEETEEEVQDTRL
In short: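 Patient-derived primary delF508-CFTR HBECs, differentiated at air-liquid interface ~2 weeks, treated basolaterally with compound for 24 h, then apical and basolateral compound in HEPES pH 7.4 assay medium. Equivalent short-circuit current (Ieq) recorded on MTECC-24 with sequential amiloride, forskolin, potentiator and INH-172; normalized to 0.1% DMSO, EC50 from curve fit.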

[1] = target: T2, horseradish peroxidase (HRP) tagged delF508-CFTR (Homo sapiens, UniProt P13569, DEL508-508); assay: Measurement of delF508-CFTR-HRP surface expression in CFBE41o- cells; format: cell-based; details: for Emax: read-out: DelF508-CFTR-HRP Amax %;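 for DelF508-CFTR-HRP Amax %: percent efficacy relative to reference corrector lumacaftor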
T2 construct: expressed in transfected cells
T2 sequence (P13569 with tags, fused parts or gaps DEL508-508): as above
In short: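 CFBE41o- bronchial epithelial cells stably expressing delF508-CFTR with HRP in the fourth extracellular loop; expression induced 48h with 500 ng/mL doxycycline, then compounds added (top 10 μM, 10-point 3-fold series, ≤0.5% DMSO) for 24h at 37° C. Surface HRP measured by luminescence with cell-impermeant substrate; EC50 from logistic fit of triplicates, plate-normalized to lowest concentration; efficacy also relative to a reference corrector.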

[2] = delF508-CFTR-HRP surface expression, CFBE41o- cells
[3] = delF508-CFTR-HRP surface expression, CFBE41o- cells, read-out: DelF508-CFTR-HRP EC50

Structure (SMILES)	MTECC24 CFHBEC- Amax % (delF508-CFTR)	EC50 (delF508-CFTR)	Emax [1, 2]	EC50 [1, 3]	EC50 [1]	Emax ([1]; CFBE41o-)
Cc1ccccc1-c1nc(NS(=O)(=O)c2cccc(N3CCNC[C@H]3C)n2)ccc1C(F)(F)F [Example 171, (R)-6-(2-methylpiperazin-1-yl)-N-(6-(o-tolyl)-5-(trifluoromethyl)pyridin-2-yl)pyridine-2-sulfonamide Hydrochloride]	66.2%	118 nM	505%	2730 nM	–	–
Cc1cccc(C)c1-c1nc(NS(=O)(=O)c2cccc(N3CCN[C@@H](CO)C3)n2)ccc1C(F)(F)F [Example 172, (R)—N-(6-(2,6-dimethylphenyl)-5-(trifluoromethyl)pyridin-2-yl)-6-(3-(hydroxymethyl)piperazin-1-yl)pyridine-2-sulfonamide Hydrochloride]	77.0%	314 nM	684%	2510 nM	–	–
Cc1cccc(C)c1-c1nc(NS(=O)(=O)c2cccc(N3CCN[C@H](CO)C3)n2)ccc1C(F)(F)F [Example 173, (S)—N-(6-(2,6-dimethylphenyl)-5-(trifluoromethyl)pyridin-2-yl)-6-(3-(hydroxymethyl)piperazin-1-yl)pyridine-2-sulfonamide Hydrochloride]	61.4%	76.9 nM	682%	2370 nM	–	–
Cc1ccc(F)cc1-c1nc(NS(=O)(=O)c2cccc(N3CCN[C@@H](CO)C3)n2)ccc1C(F)(F)F [Example 174, (R)—N-(6-(5-fluoro-2-methylphenyl)-5-(trifluoromethyl)pyridin-2-yl)-6-(3-(hydroxymethyl)piperazin-1-yl)pyridine-2-sulfonamide Hydrochloride]	57.1%	207 nM	515%	2640 nM	–	–
Cc1ccc(F)cc1-c1nc(NS(=O)(=O)c2cccc(N3CCN[C@H](CO)C3)n2)ccc1C(F)(F)F [Example 175, (S)—N-(6-(5-fluoro-2-methylphenyl)-5-(trifluoromethyl)pyridin-2-yl)-6-(3-(hydroxymethyl)piperazin-1-yl)pyridine-2-sulfonamide Hydrochloride]	63.4%	281 nM	530%	3270 nM	–	–
Cc1ccc(F)cc1-c1nc(NS(=O)(=O)c2cccc(N3CCN[C@H](C)C3)n2)ccc1C(F)(F)F [Example 176, (R)—N-(6-(5-fluoro-2-methylphenyl)-5-(trifluoromethyl)pyridin-2-yl)-6-(3-methylpiperazin-1-yl)pyridine-2-sulfonamide Hydrochloride]	69.8%	224 nM	529%	3420 nM	–	–
Cc1ccc(F)cc1-c1nc(NS(=O)(=O)c2cccc(N3CCN[C@@H](C)C3)n2)ccc1C(F)(F)F [Example 177, (S)—N-(6-(5-fluoro-2-methylphenyl)-5-(trifluoromethyl)pyridin-2-yl)-6-(3-methylpiperazin-1-yl)pyridine-2-sulfonamide Hydrochloride]	79.7%	232 nM	447%	2810 nM	–	–
Cc1ccc(F)cc1-c1nc(NS(=O)(=O)c2cccc(N3C[C@@H](C)N[C@@H](C)C3)n2)ccc1C(F)(F)F [Example 178, 6-((3S,5R)-3,5-dimethylpiperazin-1-yl)-N-(6-(5-fluoro-2-methylphenyl)-5-(trifluoromethyl)pyridin-2-yl)pyridine-2-sulfonamide Hydrochloride]	66.3%	209 nM	231%	1150 nM	–	–
Cc1ccc(F)cc1-c1nc(NS(=O)(=O)c2cccc(N3CCN(C)CC3)n2)ccc1C(F)(F)F [Example 179, N-(6-(5-fluoro-2-methylphenyl)-5-(trifluoromethyl)pyridin-2-yl)-6-(4-methylpiperazin-1-yl)pyridine-2-sulfonamide]	91.9%	31.6 nM	–	2080 nM	–	–
CC(=O)N1CCN(c2cccc(S(=O)(=O)Nc3ccc(C(F)(F)F)c(-c4cc(F)ccc4C)n3)n2)CC1 [Example 180, 6-(4-acetylpiperazin-1-yl)-N-(6-(5-fluoro-2-methylphenyl)-5-(trifluoromethyl)pyridin-2-yl)pyridine-2-sulfonamide]	44.5%	9.4 nM	627%	1500 nM	–	–
Cc1ccccc1-c1nc(NS(=O)(=O)c2cccc(N3CC4CCC(C3)N4)n2)ccc1C(F)(F)F [Example 181, 6-(3,8-diazabicyclo[3.2.1]octan-3-yl)-N-(6-(o-tolyl)-5-(trifluoromethyl)pyridin-2-yl)pyridine-2-sulfonamide Hydrochloride]	101.5%	39.8 nM	–	–	2670 nM	454%
Cc1ccccc1-c1nc(NS(=O)(=O)c2cccc(N3CCN(CCO)CC3)n2)ccc1C(F)(F)F [Example 182, 6-(4-(2-hydroxyethyl)piperazin-1-yl)-N-(6-(o-tolyl)-5-(trifluoromethyl)pyridin-2-yl)pyridine-2-sulfonamide Hydrochloride]	89.6%	87.8 nM	485%	3220 nM	–	–
Cc1ccccc1-c1nc(NS(=O)(=O)c2cccc(N3CCN(CC(N)=O)CC3)n2)ccc1C(F)(F)F [Example 183, 2-(4-(6-(N-(6-(o-tolyl)-5-(trifluoromethyl)pyridin-2-yl)sulfamoyl)pyridin-2-yl)piperazin-1-yl)acetamide]	67.8%	74.9 nM	191%	896 nM	–	–
Cc1ccccc1-c1nc(NS(=O)(=O)c2cccc(N3CCN(C(N)=O)CC3)n2)ccc1C(F)(F)F [Example 184, 4-(6-(N-(6-(o-tolyl)-5-(trifluoromethyl)pyridin-2-yl)sulfamoyl)pyridin-2-yl)piperazine-1-carboxamide]	69.2%	53.5 nM	149%	835 nM	–	–
Cc1ccccc1-c1nc(NS(=O)(=O)c2cccc(N3CCN(CC(F)F)CC3)n2)ccc1C(F)(F)F [Example 185, 6-(4-(2,2-difluoroethyl)piperazin-1-yl)-N-(6-(o-tolyl)-5-(trifluoromethyl)pyridin-2-yl)pyridine-2-sulfonamide]	105.5%	4.6 nM	877%	1460 nM	–	–
Cc1ccccc1-c1nc(NS(=O)(=O)c2cccc(N3CCN(CC(F)(F)F)CC3)n2)ccc1C(F)(F)F [Example 186, N-(6-(o-tolyl)-5-(trifluoromethyl)pyridin-2-yl)-6-(4-(2,2,2-trifluoroethyl)piperazin-1-yl)pyridine-2-sulfonamide]	81.5%	2.6 nM	–	1190 nM	–	–
Cc1ccccc1-c1nc(NS(=O)(=O)c2cccc(N3CCN(C4COC4)CC3)n2)ccc1C(F)(F)F [Example 187, 6-(4-(oxetan-3-yl)piperazin-1-yl)-N-(6-(o-tolyl)-5-(trifluoromethyl)pyridin-2-yl)pyridine-2-sulfonamide]	78.8%	92 nM	634%	2560 nM	–	–
Cc1ccccc1-c1nc(NS(=O)(=O)c2cccc(N3CCN(C)CC3)n2)ccc1C(F)(F)F [Example 189, 6-(4-methylpiperazin-1-yl)-N-(6-(o-tolyl)-5-(trifluoromethyl)pyridin-2-yl)pyridine-2-sulfonamide]	79.0%	31.7 nM	414%	2830 nM	–	–
Cc1ccccc1-c1nc(NS(=O)(=O)c2cccc(N3CCNC(=O)C3)n2)ccc1C(F)(F)F [Example 190, 6-(3-oxopiperazin-1-yl)-N-(6-(o-tolyl)-5-(trifluoromethyl)pyridin-2-yl)pyridine-2-sulfonamide]	64.5%	13.2 nM	565%	3410 nM	–	–
Cc1ccccc1-c1nc(NS(=O)(=O)c2cccc(N3CCN(C(=O)CN)CC3)n2)ccc1C(F)(F)F [Example 191, 6-(4-glycylpiperazin-1-yl)-N-(6-(o-tolyl)-5-(trifluoromethyl)pyridin-2-yl)pyridine-2-sulfonamide hydrochloride]	64.4%	101 nM	206%	3860 nM	–	–
Cc1cccc(C)c1-c1nc(NS(=O)(=O)c2cccc(N3CCNCC3=O)n2)ccc1Cl [Example 192, N-(5-chloro-6-(2,6-dimethylphenyl)pyridin-2-yl)-6-(2-oxopiperazin-1-yl)pyridine-2-sulfonamide hydrochloride]	42.3%	16.1 nM	279%	2520 nM	–	–
Cc1ccc(F)cc1-c1nc(NS(=O)(=O)c2cccc(N3CCNCC3)n2)ccc1Cl [Example 193, N-(5-chloro-6-(5-fluoro-2-methylphenyl)pyridin-2-yl)-6-(piperazin-1-yl)pyridine-2-sulfonamide hydrochloride]	81.2%	178 nM	385%	3920 nM	–	–
